Consider six compounds from paper PMC3944516, “Isolation and Characterization of Anti-Adenoviral Secondary Metabolites from Marine Actinobacteria” (Marine Drugs, 2014).

Entries after “also recorded” stand apart in the source; their conditions may differ.

In data set [1] the test system is HAdV type 5. As to the kind of experiment: quantitative real-time PCR (qPCR) anti-adenoviral dose-response assay. The data set is classed as cell-based, human adenovirus type 5 (strain F2853-5b) in A549 cells. The following applies: for EC50: Human mastadenovirus C, A549 host cells, qPCR of viral genomes after 24 h, duplicates; for anti-adenoviral activity (in words): dose-response up to 0.4 mM, qPCR 24 h post infection (Figure 8B). How it is done:
In order to confirm the antiviral activity observed during the screening campaign (Figure 3) and determine the EC50 values of the analogs, we conducted a dose-response experiment by a standardized quantitative real-time PCR (qPCR) assay (Figure 5). In this assay, the number of adenoviral genomes is assessed in relationship to the number of cells and the replication of HAdV type 5 on A549 host cells was assessed.
Figure 5 Dose-response study of the identified compounds on HAdV type 5. Each concentration point was run in duplicate and qPCR-analysis performed after 24 h. The amount of HAdV type 5 genomes in each treated sample was compared to infected but non-treated samples to obtain the inhibition of the percentage of control (y-axis). See the experimental section for details.
The quantitative Real Time PCR (qPCR) assay was performed as previously described. Briefly, A549 cells in 24 well plates (Nunc™ #142475) were infected with HAdV type 5 (1 pg per cell) and incubated with compound for 24 h. Thereafter, cellular and viral DNA was prepared using a QIAamp DNA blood minikit (Qiagen, Solna, Sweden) and quantitative real-time PCR was used to detect newly synthesized viral DNA and the inhibitory effect of the compounds. The principle of quantitative real-time PCR and the design of primers and probes for analysis of various HAdV types representing different adenovirus species have previously been described. Quantitative real-time PCR was carried out using a primer pair and a FAM-labeled probe detecting and amplifying the viral hexon gene. The amount of detected viral hexon DNA was normalized to the cellular RNaseP gene. Real-time PCR was performed in an ABI Prism 7900HT sequence detector and analyzed with Sequence Detector software version 2.4 (Applied Biosystems®, Life Technologies, Grand Island, NY, USA).
Determination of the EC50 values was performed with non-linear regression analysis with a variable slope using GraphPad Prism software version 6.0c (GraphPad Software, San Diego, CA, USA).
(In qPCR the cycle at which signal appears reflects the starting amount.)

Data set [2] is described as follows: XTT based cytotoxicity test on A549 cells. The data set is classed as cell-based, human. The settings on record: human, A549 cells, 24 h, XTT, normalized against DMSO controls, two independent experiments; for viability at 24 h, 400 µM: read-out: % Viable Cells at 400 μM; for viability at 24 h, 800 µM: read-out: % Viable Cells at 800 μM. From the text:
(§1) Consideration of cellular cytotoxicity is essential when identifying antiviral compounds. Compounds that negatively interfere with the proliferation or viability of host cells will be recorded as false positives when assayed for antiviral activity. […] The XTT test measures the ability of mitochondrial enzymes to reduce 2,3-bis-(2-methoxy-4-nitro-5-sulfophenyl)-2H-tetrazolium-5-carboxanilide to a colored formazan dye that is spectrophotometrically quantified. […] Strikingly, butenolide 4 with the non-functionalized side-chain affected the viability dramatically. At both 400 and 800 μM of 4 the percentage of viable cells was close to zero, whereas for butenolide 1–3 the cells were as viable as the DMSO control at the concentrations tested. […] To further elucidate this difference and determine whether the cytotoxicity was cell type specific, we performed a dose-response experiment and investigated the cytotoxicity on human diploid fibroblasts derived from foreskin (FSU). FSU cells are isolated from the dermis of juvenile foreskin and, unlike A549 cells, are not derived from carcinoma, but primary cells with a limited expected number of cell divisions. […] However, the butenolide 4 with a non-functionalized side-chain reduced the viability of A549 cells and FSU cells to almost zero at 400 and 800 μM. […] The reason for the steep concentration dependence on cytotoxicity for the butenolide 4 containing a non-functionalized side-chain is presently unknown, and the large difference in cytotoxic potential between 4 and the other analogs is noteworthy when considering the minor structural differences in their side-chains.
(§2) The potential cytotoxic effect of the compounds was determined with XTT-based Cell Proliferation Kit II (Roche Applied Science, Penzberg, Germany). This method is a colorimetric assay based on the cleavage of the tetrazolium salt XTT to a soluble formazan salt by viable cells. Approximately, 13,000 A549 cells were seeded per well in 96-well plates on the day before addition of compounds. The next day, the growth medium was removed from the wells and replaced with 100 μL of phenol-red free DMEM with 2% FBS containing compound. In parallel, an amount of DMSO corresponding to the same amount of test compound was added to the cells and the plate was incubated at 37 °C for 20 h. Subsequently, 50 μL of XTT solution was added per well and the plate was incubated at 37 °C for 4 h and finally the intensity of the formazan dye was measured by spectrophotometry at a wavelength of 490 nm.

Data set [3] has as its system FSU cells (human diploid fibroblasts derived from foreskin). As to the kind of experiment: XTT based cytotoxicity dose-response on FSU cells. It counts as cell-based. The settings on record: 24 h.
Source text: as §1
Figure 6 The cytotoxicity profile of butenolide ketone 3 and butenolide 4 with a non-functionalized side chain, on two cell lines, A549 cells and FSU cells, analyzed after 24 h. See experimental section for details.
as §2

Data set [4] has as its system HAdV type 5. As to the kind of experiment: time-of-addition assay (qPCR). The data set is classed as cell-based, human adenovirus type 5 in A549 cells. How it is done: Figure 7 Characterization of the antiviral activity of the butenolide ketone 3. The antiviral activity of the compounds was obtained by comparing the amount of HAdV type 5 genomes per cell to non-treated but infected control samples (y-axis). (A) Time-of-addition assay where 200 μM of butenolide ketone 3 was added at different time points in comparison to the addition of HAdV 5 at time 0 h. Samples were analyzed 24 h after the infection (+24 h) with qPCR; (B) Binding assay with ^35S-labelled HAdV 5 virions, with 200 μM compound 3 pretreated A549 cells for 1.5 h prior time-of-infection (TOI) and no pretreatment; (C) Virucidal assay where HAdV 5 virions were pretreated with 200 μM of butenolide ketone 3 prior addition to A549 cells and analyzed after 24 h. […]
The quantitative Real Time PCR (qPCR) assay was performed as previously described. […] Thereafter, cellular and viral DNA was prepared using a QIAamp DNA blood minikit (Qiagen, Solna, Sweden) and quantitative real-time PCR was used to detect newly synthesized viral DNA and the inhibitory effect of the compounds. The principle of quantitative real-time PCR and the design of primers and probes for analysis of various HAdV types representing different adenovirus species have previously been described. Quantitative real-time PCR was carried out using a primer pair and a FAM-labeled probe detecting and amplifying the viral hexon gene. […]

The next data set has as its system A549 cells. Put plainly: XTT based cytotoxicity test on A549 cells. It counts as cell-based, human. The following applies: for concentration above which the viability of the cells is significantly reduced: A549 cells, XTT (Figure 8C).
Source text: as §1, §2
A general note: Tetrazolium dyes change colour on reduction, which living cells bring about.

In data set [5] the test system is HAdV 5 virions binding to A549 cells. As to the kind of experiment: binding assay with 35S-labelled HAdV 5 virions. It counts as cell-based, human adenovirus type 5 in A549 cells. The following applies: A549 cells pre-treated with 200 μM for 1.5 h, compared to the control. How it is done: (§3) Figure 7 Characterization of the antiviral activity of the butenolide ketone 3. The antiviral activity of the compounds was obtained by comparing the amount of HAdV type 5 genomes per cell to non-treated but infected control samples (y-axis). (A) Time-of-addition assay where 200 μM of butenolide ketone 3 was added at different time points in comparison to the addition of HAdV 5 at time 0 h. Samples were analyzed 24 h after the infection (+24 h) with qPCR; (B) Binding assay with ^35S-labelled HAdV 5 virions, with 200 μM compound 3 pretreated A549 cells for 1.5 h prior time-of-infection (TOI) and no pretreatment; (C) Virucidal assay where HAdV 5 virions were pretreated with 200 μM of butenolide ketone 3 prior addition to A549 cells and analyzed after 24 h.
This was primarily to investigate in which stage of the viral infectious cycle that the butenolide ketone 3 inhibited and consequently to reduce the number of possible drug-targets for further mode-of-action analysis. […] Simultaneous addition of 200 μM of 3 and virus (0 h) reduced the viral replication to below 20%, which is consistent with Figure 5. […]
^35S labelling of HAdV 5 was performed as previously described as well as the binding experiment. […] The cell-associated radioactivity was measured using a liquid scintillation counter (Wallac 1409, Perkin-Elmer, Waltham, MA, USA).

In a further data set the test system is HAdV 5 virions. As to the kind of experiment: virucidal assay. The settings on record: virions incubated with 200 μM for 2 h before infection, qPCR after 24 h. The data set is classed as cell-based, human adenovirus type 5 in A549 cells. Here is the method:
as §3
This was primarily to investigate in which stage of the viral infectious cycle that the butenolide ketone 3 inhibited and consequently to reduce the number of possible drug-targets for further mode-of-action analysis. […]
The HAdV type 5 stock was diluted in DMEM (Sigma-Aldrich, St. Louis, MO, USA) with 2% FBS (Gibco®, Life Technologies, Grand Island, NY, USA) to the appropriate concentration to be added per well. […] In parallel, an identical mixture with no incubation time was added to wells as a control and the antiviral activity was analyzed 24 h post infection with qPCR assay.

In the case of `C[C@H](O)[C@H](C)CCCCC[C@H]1C=CC(=O)O1` [Compound 1a], the EC50 (in general, the concentration giving half of the maximal effect) with HAdV type 5 [1] worked out at 113 µM. In addition, in data set [2], the viability at 24 h, 400 µM amounted to 98 ± 6% and the viability at 24 h, 800 µM was 96 ± 4%.
Compound `CCC(C)(O)CCCCC[C@H]1C=CC(=O)O1` (some centres unmarked) [Compound 2] registered an EC50 in the data set on HAdV type 5 [1] of 183 µM. Further, in data set [2], the viability at 24 h, 400 µM is 106 ± 7% and the viability at 24 h, 800 µM amounted to 100 ± 3%.
For the compound `CC(=O)[C@H](C)CCCCC[C@H]1C=CC(=O)O1` [Compound 3], in the data set with HAdV type 5 [1], a half-maximal response (EC50) required 91 µM. The “cytotoxicity at the highest concentration (in words)” value in data set [3] (2 mM, XTT (Figure 6)) is on record as “no prominent cytotoxicity; also recorded: did not affect the viability of FSU cells to a great extent”. For the same compound, the “viral replication, % of non-treated infected control” value in the data set on HAdV type 5 [4] (200 μM added simultaneously with virus (0 h), qPCR 24 h after infection) is reported as “below 20%”. The “effect on viral infection (in words)” value with HAdV type 5 [4] (cells pre-incubated with 200 μM for four hours prior to the addition of virus, qPCR at 24 h) is listed as “completely blocked the viral infection”. Moreover, the “cytotoxicity (in words)” value with A549 cells (XTT, concentrations tested) is reported as “no cytotoxicity”. Besides, in data set [2], the viability at 24 h, 400 µM was 102 ± 5% and the viability at 24 h, 800 µM amounted to 101 ± 3%. In addition, the “binding of the virus to the cells (in words)” value in data set [5] is “did not reduce the binding of the virus to the cells”. In the data set with HAdV 5 virions, the “virucidal activity (in words)” value was “did not differ between the pretreated and non-pretreated virions”.
With `CCC(C)CCCCCC1C=CC(=O)O1` (centres unmarked) [Compound 4], in the data set on HAdV type 5 [1], a half-maximal response (EC50) required 90 µM. In addition, the “viability of FSU cells (in words)” value was “in line with untreated DMSO control” in data set [3] (100 μM, XTT (Figure 6)); “almost zero” in data set [3] (400 and 800 μM, XTT). For the same compound, the “cytotoxicity on FSU cells (in words)” value in data set [3] (200 μM, XTT (Figure 6)) is listed as “toxicity was strongly decreased”. Further, the “viability of A549 cells (in words)” value with A549 cells (100 μM, 24 h, XTT (Figure 6)) was “in line with untreated DMSO control”; in the data set with A549 cells (400 and 800 μM, 24 h, XTT) it was “close to zero”. Moreover, the “cytotoxicity on A549 cells (in words)” value in the data set on A549 cells (200 μM, 24 h, XTT (Figure 6)) is “toxicity was strongly decreased”. In addition, in the data set with A549 cells (24 h), the “concentration above which the viability of the cells is significantly reduced” value is reported as “above 0.2 mM”. For the same compound, the “concentration showing cytotoxicity relative to EC50” value in the data set on A549 cells (cytotoxic concentration compared with the EC50 on HAdV type 5) is listed as “approximately three times its EC50 value”. Besides, the viability at 24 h, 400 µM in data set [2] was 3 ± 1%. Further, the viability at 24 h, 800 µM in data set [2] is 3 ± 1%.
With `CC(=O)[C@H](C)CCCCC[C@H]1CCC(=O)O1` [Compound 5], the “anti-adenoviral activity (in words)” value in the data set on HAdV type 5 [1] is “eliminated the antiviral activity”.
In the case of `CC[C@H](C)CCCCC[C@H]1CCC(=O)O1` [Compound 6], the “anti-adenoviral activity (in words)” value in the data set on HAdV type 5 [1] is listed as “eliminated the antiviral activity”. Moreover, in the data set on A549 cells (24 h), the “concentration above which the viability of the cells is significantly reduced” value is recorded as “above 0.4 mM”.
